Molecular target: T1, cyclooxygenase-1 (Cox-1) (Ovis aries, UniProt P05979)
T1 construct: purchased Cayman Chemical Company 760111
T1 sequence (P05979 25-600): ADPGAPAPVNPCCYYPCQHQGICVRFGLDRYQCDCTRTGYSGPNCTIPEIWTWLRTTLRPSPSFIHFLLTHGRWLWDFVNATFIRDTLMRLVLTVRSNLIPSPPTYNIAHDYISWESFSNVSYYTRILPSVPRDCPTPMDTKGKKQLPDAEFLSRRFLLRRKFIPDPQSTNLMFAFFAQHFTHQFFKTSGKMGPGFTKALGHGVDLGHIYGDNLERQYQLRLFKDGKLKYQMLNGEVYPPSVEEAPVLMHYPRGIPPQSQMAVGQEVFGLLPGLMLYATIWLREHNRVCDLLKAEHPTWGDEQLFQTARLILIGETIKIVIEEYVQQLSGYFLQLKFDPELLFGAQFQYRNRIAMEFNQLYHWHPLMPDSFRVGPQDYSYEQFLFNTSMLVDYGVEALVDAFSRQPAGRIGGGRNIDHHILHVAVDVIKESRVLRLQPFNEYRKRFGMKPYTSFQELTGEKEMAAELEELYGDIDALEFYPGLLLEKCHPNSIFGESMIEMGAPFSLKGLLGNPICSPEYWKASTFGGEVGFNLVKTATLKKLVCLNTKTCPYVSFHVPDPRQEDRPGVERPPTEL
Assay: Colorimetric Cox inhibitor screening assay (Cayman Chemical, Cat. No. 760111)
Type: biochemical
Settings: at concentrations of up to 300uM
Procedure: Inhibition of Cox-1 was determined using the Colorimetric Cox inhibitor screening assay provided by Cayman Chemical Company, Ann Arbor, MI, USA. (Cat. No. 760111) according to manufacturer's instructions. Exemplary studies were carried out using 2-(4'-trifluoromethyl-biphenyl-3-yl)-propionic acid.

In the case of CC(C(=O)O)c1cccc(-c2ccc(C(F)(F)F)cc2)c1 (stereo not drawn) [2-(4'-Trifluoromethyl-biphenyl-3-yl)-propionic acid], the “effect on the Cox-1 activity” value is reported as “No significant effect”.

Tested on: γ-secretase
Assay: Screening for γ-secretase-modulating activity in SKN neuroblastoma cells carrying the APP "swedish mutation" (assay of Citron et al 1997)
Type: cell-based
Settings: not given
Procedure: Screening was carried out using SKN neuroblastoma cells carrying the APP-"swedish mutation" (point mutation at 695 of APP) grown in DMEM/NUT-mix F12 (HAM) provided by Gibco (cat no. 31330-38) containing 5% Serum/Fe supplemented with 1% non-essential amino acids, 100 U/ml Pen/Strep. Cells were grown to near confluency. The screening was performed using the assay as described in Citron et al (1997), Nature Medicine. Vol 3: 67-72

In order of rising IC50:
1. CC(C(=O)O)c1cccc(-c2ccc(C(F)(F)F)cc2)c1 (stereo not drawn) [2-(4'-Trifluoromethyl-biphenyl-3-yl)-propionic acid]  24 µM
2. CC(C(=O)O)c1cccc(-c2ccc(Cl)cc2)c1 (stereo not drawn) [2-(4'-Chloro-biphenyl-3-yl)-propionic acid]  41 µM
3. CC(C(=O)O)c1cccc(-c2ccc(OC(F)(F)F)cc2)c1 (stereo not drawn) [2-(4'-Trifluoromethoxy-biphenyl-3-yl)-propionic acid]  75 µM
4. O=C(O)Cc1cccc(-c2ccc(C(F)(F)F)cc2)c1 [(4'-Trifluoromethyl-biphenyl-3-yl)-acetic acid]  84 µM
5. C[C@@H](C(=O)O)c1ccc(-c2ccccc2)c(F)c1 [R-Flurbiprofen, reference compound]  247 µM

From patent publication EP1604970A1, “2-(Biphenyl-3-yl)-carboxylic acids of gamma-secretase-modulating activity” (CELLZOME AG, priority 2004, dated 2005)
